Data on 70 molecules can be found in patent US10233195B2, “Anti-fibrotic pyridinones” (InterMune, Inc., priority 2014, dated 2019).

Some results are limits rather than exact numbers.

This experiment concerns TGF-b induced Endothelin-1 production. Nature of the experiment: ET-1 assay: inhibitory effect on TGF-b induced endothelin-1 production. The format is cell-based. The conditions noted are these: Homo sapiens, Fibroblast; fibroblasts, stimulant (TGFb, serum, LPA etc), ET-1 in media by ELISA, 4-parameter fit. The method, then:
Assay of Inhibitory Effect on TGF-b Induced Endothelin-1 Production
Fibroblasts (primary human lung and dermal, HFL-1, 3T3 etc) are seeded in 96-well plates at ˜15000 cells/well and serum starved for 0-48 hours. After media exchange, compounds serially diluted in DMSO are added to the cells. After a brief incubation of ˜30 min, stimulants (TGFb, serum, LPA etc) are added followed by further incubation for 16-48 hours. Media is then harvested and stored frozen in plate format for later endothelin-1 (ET-1) determination by ELISA. Toxicity measurements are made using the ATPlite kit (Perkin-Elmer). ET-1 is quantified using an ELISA kit (R&D Systems). The amount of ET-1 produced in the assay wells are back-calculated using the ELISA standard. The ability of a compound to inhibit ET-1 production is typically analyzed by fitting dose-response curves to a 4-parameter logistic function to obtain an EC50 value. A measure of cytotoxicity (CC50) is likewise reported from the same experiment using the ATPlite data.
Compounds of some embodiments were prepared according to synthetic methods described herein and assay data obtained for EC50 against ET-1. The assay data obtained is presented in Table 2, in which A=less than 50 μM, B=greater than or equal to 50 μM and less than or equal to 200 μM; and C=greater than 200 μM.
In the case of `CNc1cc(=O)n(-c2ccc(OC(F)(F)F)cc2)cc1-c1cnn(C)c1` [Compound 125], the EC50 (commonly the concentration needed to bring the measured effect to its halfway point) was > 200 µM.

Regarding `Cn1cc(-c2cn(-c3ccc(OC(F)(F)F)cc3)c(=O)cc2N2CCCCC2)cn1` [Compound 127], the concentration for a half-maximal effect (EC50) was > 200 µM.

As to `Cn1cc(-c2cn(-c3ccc(OC(F)(F)F)cc3)c(=O)cc2N2CCOCC2)cn1` [Compound 128], the EC50 was < 50 µM.

Consider `Cn1cc(-c2cn(-c3ccc(OC(F)(F)F)cc3)c(=O)cc2N2CCc3ccccc3C2)cn1` [Compound 129], for which the concentration giving a half-maximal response (EC50) lay in the range of 50 to 200 µM.

Consider `Cn1cc(-c2cn(-c3ccc(OC(F)(F)F)cc3)c(=O)cc2Nc2ccccc2)cn1` [Compound 130], for which the EC50 was > 200 µM.

For the molecule `Cn1cc(-c2cn(-c3ccc(OC(F)(F)F)cc3)c(=O)cc2NCCc2ccccc2)cn1` [Compound 131], the EC50 is > 200 µM.

As for `Cn1cc(-c2cn(-c3ccc(OC(F)(F)F)cc3)c(=O)cc2NCc2c(Cl)cccc2Cl)cn1` [Compound 132], the EC50 was > 200 µM.

The molecule `COc1ccc(CN(C)c2cc(=O)n(-c3ccc(OC(F)(F)F)cc3)cc2-c2cnn(C)c2)cc1` [Compound 135] returned a concentration giving a half-maximal response (EC50) of 50 to 200 µM.

Consider `CCOC(=O)Nc1cc(=O)n(-c2ccc(OC(F)(F)F)cc2)cc1-c1cnn(C)c1` [Compound 137], for which the EC50 is > 200 µM.

Take `COC(=O)Nc1cc(=O)n(-c2ccc(OC(F)(F)F)cc2)cc1-c1cnn(C)c1` [Compound 138]: the concentration for a half-maximal effect (EC50) was > 200 µM.

As to `CC(C)OC(=O)Nc1cc(=O)n(-c2ccc(OC(F)(F)F)cc2)cc1-c1cnn(C)c1` [Compound 139], the EC50 was > 200 µM.

For the molecule `CC(=O)Nc1cc(=O)n(-c2ccc(OC(F)(F)F)cc2)cc1-c1cnn(C)c1` [Compound 141], the half-maximal effective concentration (EC50) is > 200 µM.

Turning to `Cn1cc(-c2cn(-c3ccc(OC(F)(F)F)cc3)c(=O)cc2OCc2ccccc2)cn1` [Compound 143], the EC50 is > 200 µM.

As for `COCCOc1cc(=O)n(-c2ccc(OC(F)(F)F)cc2)cc1-c1cnn(C)c1` [Compound 144], the concentration for a half-maximal effect (EC50) is > 200 µM.

`Cn1cc(-c2cn(-c3ccc(OC(F)(F)F)cc3)c(=O)cc2OCCN2CCCC2)cn1` [Compound 145] gave a 50% effective concentration (EC50) of 50 to 200 µM.

In the case of `Cn1cc(-c2cn(-c3ccc(OC(F)(F)F)cc3)c(=O)cc2OCCN2CCCC2=O)cn1` [Compound 146], the EC50 is > 200 µM.

In the case of `Cn1cc(-c2cn(-c3ccc(OC(F)(F)F)cc3)c(=O)cc2OCCN2CCOCC2)cn1` [Compound 147], the EC50 is > 200 µM.

Take `Cn1cc(-c2cn(-c3ccc(OC(F)(F)F)cc3)c(=O)cc2OCCN2CCS(=O)(=O)CC2)cn1` [Compound 148]: the EC50 is > 200 µM.

For `Cn1cc(-c2cn(-c3ccc(OC(F)(F)F)cc3)c(=O)cc2OC2CCS(=O)(=O)CC2)cn1` [Compound 149], the EC50 lay within 50 to 200 µM.

Take `Cn1cc(-c2cn(-c3ccc(OC(F)(F)F)cc3)c(=O)cc2OCCN2CCOCC2=O)cn1` [Compound 150]: the concentration for a half-maximal effect (EC50) lay within 50 to 200 µM.

As to `CN1CCC(Oc2cc(=O)n(-c3ccc(OC(F)(F)F)cc3)cc2-c2cnn(C)c2)CC1` [Compound 151], the EC50 was < 50 µM.

The molecule `CN1CCN(CCOc2cc(=O)n(-c3ccc(OC(F)(F)F)cc3)cc2-c2cnn(C)c2)CC1` [Compound 152] came in with a 50% effective concentration (EC50) of 50 to 200 µM.

`CCOc1ccc(Oc2cc(=O)n(-c3ccc(OC(F)(F)F)cc3)cc2-c2cnn(C)c2)cc1C` [Compound 154]: the half-maximal effective concentration (EC50) was > 200 µM.

For the molecule `Cn1cc(-c2cn(-c3ccc(OC(F)(F)F)cc3)c(=O)cc2Oc2cc(Cl)cc(C#N)c2)cn1` [Compound 156], the EC50 was > 200 µM.

As to `Cn1cc(-c2cn(-c3ccc(OC(F)(F)F)cc3)c(=O)cc2C(=O)O)cn1` [Compound 158], the concentration giving a half-maximal response (EC50) is > 200 µM.

Regarding `CCCNC(=O)c1cc(=O)n(-c2ccc(OC(F)(F)F)cc2)cc1-c1cnn(C)c1` [Compound 159], the 50% effective concentration (EC50) is > 200 µM.

`Cc1cc(=O)n(-c2cccc(C(F)(F)F)c2)cc1-c1ccccc1` [Compound 163]: the concentration giving a half-maximal response (EC50) was < 50 µM.

Regarding `Cc1cc(=O)n(-c2ccc(OC(F)(F)F)cc2)cc1-c1ccccc1` [Compound 164], the concentration giving a half-maximal response (EC50) was < 50 µM.

For `Cc1cc(=O)n(-c2ccccc2)cc1-c1ccccc1` [Compound 165], the EC50 lay in the range of 50 to 200 µM.

As to `Cc1cc(=O)n(-c2cccc(OC(F)(F)F)c2)cc1-c1ccccc1` [Compound 166], the EC50 was < 50 µM.

With `CC(=O)Nc1cccc(-n2cc(-c3ccccc3)c(C)cc2=O)c1` [Compound 167], the EC50 was > 200 µM.

`CCOc1ccc(-n2cc(-c3ccccc3)c(C)cc2=O)c(C)c1` [Compound 168] had an EC50 of 50 to 200 µM.

Molecule `Cc1cc(=O)n(-c2ccc(Cl)cc2C)cc1-c1ccccc1` [Compound 169] returned an EC50 of 50 to 200 µM.

In the case of `Cc1cc(=O)n(-c2ccc(C(F)(F)F)cc2C)cc1-c1ccccc1` [Compound 170], the 50% effective concentration (EC50) was < 50 µM.

As to `Cc1cc(=O)n(-c2ccccc2F)cc1-c1ccccc1` [Compound 171], the EC50 lay in the range of 50 to 200 µM.

As for `CC(=O)Nc1cccc(-n2cc(-c3ccc(F)cc3)c(C)cc2=O)c1` [Compound 172], the EC50 was > 200 µM.

In the case of `Cc1cc(=O)n(-c2ccc(C(F)(F)F)cc2)cc1-c1ccc(F)cc1` [Compound 173], the concentration giving a half-maximal response (EC50) is > 200 µM.

As to `Cc1cc(=O)n(-c2cccc(OC(F)(F)F)c2)cc1-c1ccc(F)cc1` [Compound 174], the EC50 was < 50 µM.

For the molecule `Cc1cc(=O)n(-c2ccccc2)cc1-c1ccc(F)cc1` [Compound 176], the concentration for a half-maximal effect (EC50) fell in the range of 50 to 200 µM.

In the case of `Cc1cc(=O)n(-c2cccc(C(F)(F)F)c2)cc1-c1ccc(F)cc1` [Compound 177], the EC50 fell in the range of 50 to 200 µM.

`Cc1cc(=O)n(-c2ccccc2F)cc1-c1ccc(F)cc1` [Compound 178] came in with an EC50 of 50 to 200 µM.

With `Cc1cc(=O)n(-c2ccc(Cl)cc2)cc1-c1ccc(F)cc1` [Compound 181], the EC50 was > 200 µM.

Regarding `Cc1cc(=O)n(-c2ccc3c(c2)OCCO3)cc1-c1ccc(F)cc1` [Compound 182], the EC50 was > 200 µM.

Consider `Cc1cc(=O)n(-c2ccc3c(c2)OCO3)cc1-c1ccc(F)cc1` [Compound 183], for which the EC50 is > 200 µM.

On to `Cc1cc(=O)n(-c2ccc(OC(F)(F)F)cc2C)cc1-c1ccc(F)cc1` [Compound 186], for which the concentration giving a half-maximal response (EC50) is < 50 µM.

Consider `Cc1cc(=O)n(-c2cccc(N)c2)cc1-c1ccc(F)cc1` [Compound 187], for which the 50% effective concentration (EC50) was 50 to 200 µM.

As for `CNC(=O)c1cccc(-n2cc(-c3ccc(F)cc3)c(C)cc2=O)c1` [Compound 190], the EC50 fell in the range of 50 to 200 µM.

Molecule `Cc1cc(=O)n(-c2ccc(OC(F)(F)F)cc2)cc1-c1cccc(Cl)c1` [Compound 191] had a 50% effective concentration (EC50) of 50 to 200 µM.

`CCOc1ccc(-n2cc(-c3cccc(F)c3)c(C)cc2=O)c(C)c1` [Compound 193] came in with a half-maximal effective concentration (EC50) of 50 to 200 µM.

With `Cc1cc(=O)n(-c2ccc(OC(F)(F)F)cc2)cc1-c1ccccc1F` [Compound 194], the EC50 was < 50 µM.

`Cc1cc(=O)n(-c2ccc(OC(F)(F)F)cc2)cc1-c1ccc(Cl)c(Cl)c1` [Compound 197]: the EC50 lay within 50 to 200 µM.

In the case of `CCc1cc(=O)n(-c2ccc(OC(F)(F)F)cc2)cc1-c1ccc(F)cc1` [Compound 199], the EC50 is 50 to 200 µM.

On to `CC(C)c1cc(=O)n(-c2ccc(OC(F)(F)F)cc2)cc1-c1ccc(F)cc1` [Compound 200], for which the EC50 lay in the range of 50 to 200 µM.

Regarding `O=c1cc(C(F)(F)F)c(-c2ccc(F)cc2)cn1-c1ccc(OC(F)(F)F)cc1` [Compound 205], the EC50 is 50 to 200 µM.

On to `Cc1cc(=O)n(-c2ccc(OC(F)(F)F)cc2)cc1-c1ccc2c(c1)OC(C)(C)O2` [Compound 211], for which the EC50 was > 200 µM.

For `Cc1cc(=O)n(-c2ccc(F)cc2)cc1-c1ccc(OC(F)(F)F)cc1` [Compound 212], the half-maximal effective concentration (EC50) was in the range of 50 to 200 µM.

`Cc1cc(=O)n(-c2ccc(OC(F)(F)F)cc2)cc1-c1ccc(F)cc1` [Compound 213]: the concentration giving a half-maximal response (EC50) is > 200 µM.

On to `Cc1cc(=O)n(-c2ccccc2C)cc1-c1ccc(F)cc1` [Compound 214], for which the EC50 lay within 50 to 200 µM.

Consider `CC(=O)Nc1cccc(-n2cc(-c3cn[nH]c3)c(C)cc2=O)c1` [Compound 217], for which the EC50 is > 200 µM.

Consider `COc1cc(-n2cc(-c3cn[nH]c3)c(C)cc2=O)cc(OC)c1OC` [Compound 220], for which the EC50 was > 200 µM.

For `COc1cc(-n2cc(-c3cnn(C)c3)c(C)cc2=O)cc(OC)c1OC` [Compound 221], the EC50 is > 200 µM.

Regarding `Cc1cc(=O)n(-c2ccc3c(c2)OCCO3)cc1-c1cnn(C)c1` [Compound 222], the EC50 was > 200 µM.

As for `Cc1cc(=O)n(-c2ccc3c(c2)OCO3)cc1-c1cnn(C)c1` [Compound 223], the EC50 is > 200 µM.

As for `Cc1cc(=O)n(-c2ccc3ocnc3c2)cc1-c1cnn(C)c1` [Compound 224], the EC50 was > 200 µM.

Regarding `Cc1cc(=O)n(-c2ccc3scnc3c2)cc1-c1cnn(C)c1` [Compound 225], the 50% effective concentration (EC50) is > 200 µM.

In the case of `Cc1cc(=O)n(-c2cccc(C(F)(F)F)c2)cc1-c1cnn(C)c1` [Compound 226], the EC50 was > 200 µM.

In the case of `Cc1cc(=O)n(-c2cccc(OC(F)(F)F)c2)cc1-c1cnn(C)c1` [Compound 227], the EC50 is > 200 µM.

The molecule `Cc1cc(=O)n(-c2ccc(C(F)(F)F)cc2)cc1-c1cnn(C)c1` [Compound 228] came in with a 50% effective concentration (EC50) of 50 to 200 µM.

In the case of `Cc1cc(=O)n(-c2ccccc2F)cc1-c1cnn(C)c1` [Compound 230], the concentration for a half-maximal effect (EC50) is > 200 µM.

The molecule `Cc1cc(=O)n(-c2cccc3c2OCCO3)cc1-c1cnn(C)c1` [Compound 231] gave a 50% effective concentration (EC50) of 50 to 200 µM.
